Reference: patent EP4678629A1, “IONIZABLE LIPID MOLECULE, PREPARATION METHOD THEREFOR AND USE THEREOF” (Maxirna (Shanghai) Pharmaceutical Co., Ltd., priority 2023, dated 2024)

What was measured:
mice = assay: In vivo transfection with Fluc-mRNA lipid nanoparticle (LNP preparation), live imaging of fluorescence intensity; conditions: 0.5 mg/kg
Protocol: According to the method described in Example II , LNP lipid nanoparticles of Fluc-mRNA (Maxirna FLuc mRNA, 1 mg/mL), SM-102 (CAS number: 2089251-47-6, A.V.T (Shanghai) Pharmaceutical Co., Ltd.), and positive control 1 (US10195156B2, it was prepared according to the method described in the above embodiment, the main difference lay in replacing 2-((3-aminopropyl)amino)ethane-1-ol with 2-((2-aminoethyl)amino)ethane-1-ol, the structure was as shown in FIG. 1) were prepared respectively. Cholesterol (Chol), DSPC, DOPE, and DMG-PEG2000 were purchased from A.V.T (Shanghai) Pharmaceutical Co., Ltd. Mice were randomly selected, and the lipid nanoparticles were injected intravenously and intramuscularly (4 mice per group) at a dosage of 0.5 mg/kg. Tris and Fluc-mRNA were directly injected as controls. After 6 hours, 200 ul of 10 mg/ml D-luciferin potassium salt was respectively injected into each mouse through the tail vein. After 10 minutes, the mice were placed under a live imaging system to observe the total fluorescence intensity of each mouse and take photos for recording. After 24 hours, the mice were placed under the live imaging system to observe the total fluorescence intensity of each mouse and take photos for recording. Table 2: Preparation parameters of each LNP
(§1) LNP lipid nanoparticles of Fluc-mRNA were respectively prepared using the method described in Example II. Mice were randomly selected, and the lipid nanoparticles were injected intramuscularly (2 mice per group) at a dosage of 0.5 mg/kg. Tris was directly injected as a control. After 6 hours, 200 ul of 10 mg/ml D-luciferin potassium salt was respectively injected into each mouse through the tail vein. After 10 minutes, the mice were placed under a live imaging system to observe the total fluorescence intensity of each mouse and take photos for recording. After 24 hours, the mice were placed under the live imaging system to observe the total fluorescence intensity of each mouse and take photos for recording. Table 3: Preparation parameters of each LNP
as §1, with “II .” for “II.”, “(3” for “(2”, “4:” for “3:”

[1] = Size and polydispersity index (PDI) of the lipid nanoparticle by dynamic light scattering; format: physicochemical; conditions: LNP encapsulating eGFP mRNA, ionizable lipid/DOPE/cholesterol/DMG-PEG2000 50/10/48.25/1.25 mol%, N/P 12; for Particle size: in nm (unit assumed)
Method in brief: (§2)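 LNPs were made by microfluidic mixing of ionizable lipid/DOPE/cholesterol/DMG-PEG2000 (50/10/48.25/1.25 mol%) in ethanol with eGFP mRNA in 20 mM citrate pH 6.1, N/P 12, then ultrafiltered into DPBS and 0.2 µm filtered. Size and PDI by DLS at 173° backscatter; encapsulation by Ribogreen.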

[2] = Encapsulation efficiency of the lipid nanoparticle (eGFP mRNA) by Ribogreen method; format: physicochemical; conditions: LNP encapsulating eGFP mRNA, ionizable lipid/DOPE/cholesterol/DMG-PEG2000 50/10/48.25/1.25 mol%, N/P 12
Method in brief: as §2

DC2.4 cells = assay: In vitro transfection of cells with eGFP-mRNA lipid nanoparticle (LNP preparation), fluorescence imaging and flow cytometry; format: cell-based, mouse; conditions: DC2.4 cells, 200 ng of mRNA per well, after 24 hours; for Positive rate, %: eGFP positivity rate
Method in brief: (§3)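 Mouse bone marrow-derived DC2.4 dendritic cells seeded at 2 × 10^5 cells/well in DMEM with 10% FBS, transfected with eGFP-mRNA LNPs the next day at 37 °C, 5% CO2. After 24 hours, viability, eGFP-positive rate and mean fluorescence intensity read by fluorescence imaging and flow cytometry.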

[3] = as above; format: cell-based, mouse; conditions: mouse, dc2.4 cells, 200 ng of mRNA per well, after 24 hours; read-out: Cell viability, %
Method in brief: as §3

[4] = Fluc-mRNA LNP of Table 2 (DOPE), intramuscular

SMILES | expression in the chest and abdomen (mice; [4]) | fluorescence intensity, intramuscular injection administration (mice; [4]) | fluorescence intensity (mice; Fluc-mRNA LNP of Table 2 (DOPE), intravenous and intramuscular injection, 6 and 24 hours) | whole-body expression (mice; Fluc-mRNA LNP of Table 3 (DSPC), intramuscular, 6 and 24 hours) | Particle size [1] | Encapsulation rate, % [2] | Cell viability, % (DC2.4 cells; 1440 min) | Positive rate, % (DC2.4 cells) | PDI [1] | viability at 24 h [3]
CCCCCC/C=C\COC(=O)CCCCCCCN(CCCCCCCC(=O)OC/C=C\CCCCCC)CCCN(CCCCCCCC(=O)OC/C=C\CCCCCC)CCCCCCCC(=O)OC/C=C\CCCCCC [Example 21, Tetra((Z)-non-2-en-1-yl)8,8',8",8‴-(propane-1,3-diyldi(azanetriyl))tetraoctanoate] | much lower than that of SM-102 | still maintain high fluorescence intensity | stronger than that of positive control 1 and comparable to SM-102 | – | – | – | – | – | – | –
CCCCC/C=C\C/C=C\CCCCCCCCOC(=O)CCCN(CCCO)CCCN(CCCC(=O)OCCCCCCCC/C=C\C/C=C\CCCCC)CCCC(=O)OCCCCCCCC/C=C\C/C=C\CCCCC [Example 81, Di((9Z,12Z)-octadeca-9,12-dien-1-yl)4,4'-((3-((3-hydroxypropyl)(4-(((9Z,12Z)-octadeca-9,12-dien-1-yl)oxo)-4-oxobutyl)amino)propyl)azanediyl)dibutanoate] | – | – | – | even better than SM-102 | 99.10 | 99.10% | 76.4% | 93.39% | – | –
CCCCCCCCCCOC(=O)CCCN(CCO)CCCN(CCCC(=O)OCCCCCCCCCC)CCCC(=O)OCCCCCCCCCC [Example 93, Decyl 4-(20-(2-hydroxyethyl)-12,24-dioxo-16,20-diaza-11,25-dioxapentatriacontane-16-yl)butanoate] | – | – | – | – | 98.21 | 93.28% | – | 85.37% | 0.17 | 82.6%
CCCCCCCCCCCCOC(=O)CCCN(CCO)CCCN(CCCC(=O)OCCCCCCCCCCCC)CCCC(=O)OCCCCCCCCCCCC [Example 94, Dodecyl 4-(22-(2-hydroxyethyl)-14,26-dioxo-18,22-diaza-13,27-dioxanonatriacontane-18-yl)butanoate] | – | – | – | – | – | 96.63% | – | 88.07% | 0.19 | 98.6%
CCCCC/C=C\C/C=C\CCCCCCCCOC(=O)CCCCCCCN(CCCO)CCCN(CCCCCCCC(=O)OCCCCCCCC/C=C\C/C=C\CCCCC)CCCCCCCC(=O)OCCCCCCCC/C=C\C/C=C\CCCCC [Example 95] | – | – | – | – | – | 92.93% | – | 93.13% | 0.11 | 95.9%
CCCCCCCCCCCOC(=O)CCCCCCCN(CCCCCCCC(=O)OCCCCCCCCCCC)CCCN(CCCO)CCCN(CCCCCCCC(=O)OCCCCCCCCCCC)CCCCCCCC(=O)OCCCCCCCCCCC [Example 98, Tetraundecyl 8,8',8",8"-(((3-hydroxypropyl)azanediyl)di(propane-3,1-diyl))di(azanetriyl)tetraoctanoate] | – | – | – | – | 89.51 | 91.32% | – | 92.36% | 0.14 | 96.9%
CCCCCCCCCCCCCOC(=O)CCCN(CCCO)CCCCCN(CCCC(=O)OCCCCCCCCCCCCC)CCCC(=O)OCCCCCCCCCCCCC [Example 100, 4,4'-ditridecyl((5-((3-hydroxypropyl)(4-oxo-4-(tridecyloxy)butyl)amino)pentyl)azetidinyl)dibutanoate] | – | – | – | – | – | 92.32% | – | 93.24% | 0.16 | 99%
CCCCCCCCCCCCCOC(=O)CCCN(CCCO)CCCCN(CCCC(=O)OCCCCCCCCCCCCC)CCCC(=O)OCCCCCCCCCCCCC [Example 101, 4,4'-ditridecyl((4-((3-hydroxypropyl)(4-oxo-4-(tridecyloxy)butyl)amino)butyl)azetidinyl)dibutanoate] | – | – | – | – | – | 92.68% | – | 94.85% | 0.14 | 93.4%
CCCCCCCCCCCCOC(=O)CCCN(CCCO)CCCCN(CCCC(=O)OCCCCCCCCCCCC)CCCC(=O)OCCCCCCCCCCCC [Example 103] | – | – | – | – | 94.10 | 94.31% | – | 93.80% | 0.14 | 95.3%
CCCCC/C=C\C/C=C\CCCCCCCCOC(=O)CCCN(CCCO)CCCCN(CCCC(=O)OCCCCCCCC/C=C\C/C=C\CCCCC)CCCC(=O)OCCCCCCCC/C=C\C/C=C\CCCCC [Example 104] | – | – | – | – | – | 95.12% | – | 92.63% | 0.16 | 96.7%
CCCCCCCCCCCOC(=O)/C=C/CN(C/C=C/C(=O)OCCCCCCCCCCC)CCCN(C/C=C/C(=O)OCCCCCCCCCCC)CCCO [Example 106] | – | – | – | – | – | 65.99% | – | 78.77% | 0.28 | 93.9%
CCCCCCCCCCCOC(=O)CCCCN(CCO)CCCN(CCCCC(=O)OCCCCCCCCCCC)CCCCC(=O)OCCCCCCCCCCC [Example 107] | – | – | – | – | – | 95.47% | – | 92.10% | 0.13 | 92.9%
CCCCC/C=C\C/C=C\CCCCCCCCOC(=O)CCCN(CCCO)CCCN(CCCC(=O)OCCCCCCCC/C=C\C/C=C\CCCCC)CCCC(=O)OCCCCCCCC/C=C\C/C=C\CCCCC [Example 108] | – | – | – | – | 95.34 | 92.30% | – | 93.99% | 0.13 | 92.3%
CCCCCCCCCCCOC(=O)CCCN(CCO)CCCN(CCCC(=O)OCCCCCCCCCCC)C(=O)CCC(=O)OCCCCCCCCCCC [Example 109] | – | – | – | – | – | 79.70% | – | 71.17% | 0.33 | 89%
CCCCC/C=C\C/C=C\CCCCCCCCOC(=O)CCCCN(CCCO)CCCN(CCCCC(=O)OCCCCCCCC/C=C\C/C=C\CCCCC)CCCCC(=O)OCCCCCCCC/C=C\C/C=C\CCCCC [Example 111] | – | – | – | – | 96.92 | 92.91% | – | 95.82% | 0.12 | 91%
CCCCCCCCCCCCOC(=O)CCCN(CCCO)CCCN(CCCC(=O)OCCCCCCCCCCCC)CCCC(=O)OCCCCCCCCCCCC [Example 112, 4,4'-didodecyl((3-((4-(dodecoxy)-4-oxobutyl)(3-hydroxypropyl)amino)propyl)azetidinyl)dibutanoate] | – | – | – | – | 89.42 | 91.22% | – | 95.39% | 0.11 | 92.3%
CCCCCCCCCCOC(=O)CCCN(CCCO)CCCN(CCCC(=O)OCCCCCCCCCC)CCCC(=O)OCCCCCCCCCC [Example 113, Didecyl 4,4'-((3-((4-(decyloxy)-4-oxobutyl)(3-hydroxypropyl)amino)propyl)azetidinyl)dibutanoate] | – | – | – | – | 88.62 | 91.23% | – | 92.51% | 0.14 | 93.2%
CCCCC/C=C\C/C=C\CCCCCCCCOC(=O)CCCCCCN(CCCO)CCCN(CCCCCCC(=O)OCCCCCCCC/C=C\C/C=C\CCCCC)CCCCCCC(=O)OCCCCCCCC/C=C\C/C=C\CCCCC [Example 114] | – | – | – | – | 89.25 | 92.78% | – | 91.74% | 0.16 | 93.4%
